Consider four compounds from patent US9845327B2, “Treatment of proteinopathies” (THE GENERAL HOSPITAL CORPORATION, priority 2011, dated 2017).

The target of one assay is T1, GCase polypeptide (Homo sapiens, UniProt P04062).
T1 construct: endogenous in cells; host or cells: human iPS-derived midbrain dopamine neurons (healthy control; PD patient with SNCA triplication, Coriell ND27760)
T1 sequence (P04062 40-536): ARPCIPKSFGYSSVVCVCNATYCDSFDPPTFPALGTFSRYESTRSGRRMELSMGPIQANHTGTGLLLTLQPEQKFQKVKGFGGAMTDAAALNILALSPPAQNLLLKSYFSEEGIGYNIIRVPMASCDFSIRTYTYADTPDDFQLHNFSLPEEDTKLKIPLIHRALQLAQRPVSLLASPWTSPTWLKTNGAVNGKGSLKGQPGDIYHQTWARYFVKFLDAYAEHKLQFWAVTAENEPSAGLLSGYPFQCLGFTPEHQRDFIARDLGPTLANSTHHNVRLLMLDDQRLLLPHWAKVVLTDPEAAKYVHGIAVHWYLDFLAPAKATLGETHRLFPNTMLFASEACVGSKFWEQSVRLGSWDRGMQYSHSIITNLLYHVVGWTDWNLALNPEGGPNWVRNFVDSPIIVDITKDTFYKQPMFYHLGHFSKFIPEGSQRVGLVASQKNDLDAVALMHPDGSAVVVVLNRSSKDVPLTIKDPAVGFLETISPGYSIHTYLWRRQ
The assay can be described thus: GCase polypeptide levels and post-ER forms by western blot in human iPS dopamine neurons. The following applies: human midbrain iPS dopamine neurons. The format is cell-based. As for the experimental part:
In this Example, human dopamine neurons generated from iPS cells of an unaffected control were treated with a pharmacological chaperone activator of GCase polypeptide, isofagomine (IFG). […] Treatment of wild-type neurons with 100 μM IFG for 5 days followed by 1 day wash-out increased the levels of GCase polypeptide (FIGS. 15A and 15B). This increase was likely due to the fact that wild-type GCase polypeptide was occasionally misfolded in the ER and degraded (about 30% of the total made in the ER), and IFG appeared to also stabilize the wild-type misfolded forms.
(§1) It was also shown in this Example that treatment with the GCase polypeptide activator increased the levels of total GCase protein and increased the post-ER forms, indicating enhancement of flux to the lysosome (FIG. 19B).
In this Example, the effect of combining the GCase polypeptide pharmacological chaperone IFG with the antioxidant n-acetyl-cysteine (NAC) on GCase polypeptide maturation in PD iPS neurons was tested. Neurons were treated with either IFG, NAC, or IFG and NAC together, and GCase polypeptide maturation was analyzed by western blot.
(§2) Most materials for SDS-PAGE were obtained from Invitrogen (NuPAGE system). Protein lysates were boiled in sample buffer (20 mM Tris, 1% (v/v) glycerol, 180 mM β-mercaptoethanol, 0.003% (w/v) bromophenol blue, 2% (w/v) SDS, pH 6.8), resolved on 4%-12% Bis-Tris polyacrylamide precast gels in a MOPS-SDS running buffer, or 4%-12% Tris-Glycine gels. 10% Tris-Glycine gels were utilized for some GCase polypeptide western blot's (FIGS. 13B, 13D, and 13E, and FIGS. 14C and 14F). […] Blots were blocked in Odyssey blocking buffer (Li-Cor biosciences) containing 0.05% Tween, or 5% non-fat dry milk in TBS-T 0.2%, followed by incubation with primary antibodies (see above for dilutions), and detected with anti-mouse or -rabbit IgG conjugated to IRDye 680 or 800 (1:10,000, Li-Cor biosciences). […] Any nonspecific bands detected were not included in densitometric analyses. […]

A further assay concerns α-synuclein. Kind of assay: α-synuclein levels by western blot in human midbrain iPS dopamine neurons. The format is cell-based.
Excerpt: In this Example, it was investigated whether enhancement of lysosomal enzyme trafficking through stimulation of the secretory pathway would result in increased lysosomal function and reduction of α-synuclein. Therefore, in this Example the small GTPase Rab1a polypeptide was overexpressed by lentiviral infection in iPS neurons to stimulate enzyme trafficking. Rab1a polypeptide has been established to function specifically at the ER-Golgi step of the secretory pathway (Duvernay et al., Cell Signal 17: 1457, 2005). The effect of Rab1a polypeptide was determined in human iPS dopamine neurons derived from reprogrammed fibroblasts of a PD patient (Coriell line ND27760). These cells harbor a triplication mutation in the genomic region containing SNCA which encodes for α-synuclein, leading to overexpression of the protein and lysosomal trafficking deficits. […] Further in this Example, it was determined if Rab1a polypeptide enhances lysosomal function by monitoring cathepsin B activity.
as §1, §2

A further assay relates to primary cortical neurons. The assay can be described thus: Proteolysis of long-lived proteins by radioactive pulse-chase in primary cortical neurons. The format is cell-based, mouse. The note with it: added to GCase polypeptide KD. As for the experimental part: In this Example, a test was conducted to determine whether GCase polypeptide KD affects a lysosomal degradation pathway. In this test, neurons were treated with the well-established lysosomal inhibitors ammonium chloride (NH4Cl) and leupeptin.
Proteolysis of long-lived proteins was determined by radioactive pulse-chase using ^3H-leucine. This procedure was performed as described previously (Kaushik et al. Methods Enzymol. 452: 297, 2009). Briefly, cortical cells were grown in 24 well clusters seeded at 33000 cells/well and infected at moi 3 with scrb or GCase polypeptide shRNA expressing lentiviral vectors. On dpi 4, ^3H-leucine (PerkinElmer, # NET460A001 MC, final 5 μCi/ml) was added in standard neurobasal medium containing B27 for 2 days to trace label proteins. […] Samples were centrifuged at 20,000×g for 20 min, 4° C., and the radioactivity was measured in 5 ml of scintillation cocktail using a Beckman LS 1701 liquid scintillation counter (Beckman Instruments). Precipitated protein pellets were extracted in 200 μl of Na deoxycholate, 0.1 M NaOH, and radioactivity was determined. Percent proteolysis was calculated as described in detail elsewhere (Kaushik et al. Methods Enzymol. 452: 297, 2009). […]

A further assay has as its system Hela cells. The assay can be described thus: Lysosomal proteolysis by radioactive pulse-chase in transfected Hela cells. Type of assay: cell-based. As for the experimental part:
Further in this Example, it was assessed whether GCase polypeptide overexpression had the ability to directly enhance lysosomal proteolysis in a non-neuronal cell line. Hela cells were transfected with a myc-tagged GCase polypeptide expression construct and lysosomal proteolysis was assessed by radioactive pulse-chase (FIG. 17A). […] This effect was also confirmed through a different assay, by measuring the effect of GCase polypeptide overexpression on the activity of the lysosomal protease cathepsin B. A cell-permeable fluorescent-tagged cathepsin B substrate (MAGIC RED cathepsin detection kit, Immunochemistry Technologies) was added to transfected Hela cells, and degradation of this substrate was determined in living cells after substrate wash-out.

Assay [1] addresses T2, recombinant human α-synuclein (Homo sapiens, UniProt P37840).
T2 construct: made in house; host or cells: E. coli BL21 CodonPlus (DE3)-RIL
Kind of assay: In vitro α-synuclein fibril (amyloid) formation with lipid dispersions, thioflavin T fluorescence. As for the experimental part:
In this Example, lipid dispersions made of mixtures of purified GlcCer and brain phosphatidylcholines (PCs) were incubated with α-synuclein at physiological conditions (pH 7.4, 37° C.). Electron microscopy (EM) analysis indicated the formation of tubules consisting of polymerized GlcCer (FIGS. 7G-7I), similar to those previously observed in Gaucher cells in patients and mouse models (Lee, PNAS 61: 484, 1968).
However, increasing the amount of GlcCer to 75% while keeping the total lipid amount constant (PC25/GlcCer75) altered the kinetic profile of α-synuclein fibril formation by delaying the formation of insoluble thioT-positive α-synuclein fibrils, extending the lag time from 2 to 16 hr (FIG. 7A).
The fibril assembly phase PC25/GlcCer75-containing reactions occurred between 16 and 24 hr, compared to control reactions where the assembly occurred between 2 and 24 hr. […] The aggregated species formed at the end stage of the fibril-forming reaction, after assembly was completed and equilibrium was reached (at 28 hr) were further analyzed. […]
α-synuclein was expressed in E. coli and purified by boiling followed by HPLC as described previously (Mazzulli et al 2007). […] Fluorescence (ex=430 nm, em=510, 0.1 s) was determined in a Wallac Victor^2 plate reader (Perkin Elmer) in black FluorNunc Maxisorp 96 well plates (Nunc, #475515). […]

Assay [2] deals with T2, recombinant human α-synuclein. Kind of assay: In vitro soluble α-synuclein oligomers and sedimentation with lipids (SEC/SDS-PAGE, ANS, 100,000 x g centrifugation). An excerpt:
Therefore, in this Example it was hypothesized that the delay in fibril formation observed in vitro resulted from a kinetic stabilization of a soluble oligomeric intermediate species. To test this, the nature of the species that form during the lag phase (between 1 and 16 hr) of PC25/GlcCer75-containing reactions were characterized by analytic biochemical methods. Soluble portions of the reaction mixtures were obtained by centrifugation at 100,000×g and analyzed at 1 and 5 hr after the addition of lipids by SEC/SDS-PAGE. […] Further, detected were increased amounts of soluble SDS and heat-stable dimers (36 kDa), trimers (54 kDa), and higher oligomeric species eluting as 36-27 Å-sized particles in PC25/GlcCer75-containing reactions compared to controls (FIG. 7B). […] Syn505 also detected α-synuclein directly on GlcCer tubular structures (FIG. 7G, i and ii) but not on GlcCer-alone reactions (FIG. 7I), indicating an association of misfolded α-synuclein with GlcCer. α-synuclein-GlcCer reactions were further analyzed by 8-anilino-1-napthalene sulfonate (ANS) binding, a fluorescent dye used to detect aggregation-prone conformational intermediates (Stryer, 1965). […]
Oligomers were also detected by 8-anilino-1-napthalene sulfonate (ANS) (Acros #401220050). […]

For the compound `C#Cc1ccc(NC(=O)c2cnn3c(C)cc(C)nc23)cc1` [NCGC00188758], on GCase polypeptide, the “levels of total GCase protein” value is “increased” and the “post-ER forms of GCase” value is listed as “increased”. In addition, in the assay with α-synuclein (neurons from a PD patient with triplication of the SNCA genomic region), the α-synuclein protein levels result was “dose-dependent decrease”. Also, in the assay with α-synuclein (neurons from healthy unaffected controls), the α-synuclein protein levels entry is “dose-dependent decrease”.
`Cl.N` [ammonium chloride]: in the assay with primary cortical neurons, the “proteolysis of long-lived proteins in GCase polypeptide shRNA-treated cells” value is reported as “did not additively inhibit”. Besides, the “effect of lysosomal inhibitors on the proteolysis increase by GCase polypeptide overexpression” value with Hela cells is recorded as “completely reversed”.
In the case of Glucosyl (β) Ceramide [GlcCer], the “maximal thioT signal at the end stages, fold higher compared to control reactions” value in assay [1] (pH 5.0) is recorded as 2- to 3 fold. Moreover, the α-synuclein fibril formation result in assay [1] (physiological conditions, pH 7.4, 37° C.) was “no effect”. The “amount of pelletable α-synuclein protein (100,000×g sedimentation)” value in assay [2] (pH 5.0, 28 hr) is given as “no effect”.
As for “monosialotetrahexosylganglioside [ganglioside GM1]”, in assay [2] (pH 5.0, 15 hr incubation, 10:1 lipid:protein ratio), the “soluble α-synuclein oligomers compared to α-synuclein alone” value is “dramatic stabilization and elevation”.
